Test results reported in patent US20190290656A1, “PT(IV) PRODRUGS” (YISSUM RESEARCH DEVELOPMENT COMPANY OF THE HEBREW …, priority 2015, published 2019).

Key:
2008 cells = assay: Glycolysis (Mito-ID O2 sensor), 2008; assay type: cell-based, human; settings: IC50 concentrations, 24 h
Method: (§1) Glycolysis. The cellular glycolytic activity was assessed using the Mito-ID® O2 Extracellular Sensor Kit according to the manufacturer's instructions (Enzo Life Sciences, Farmingdale, N.Y.). Briefly, PSN-1 cells (15·10^3 per well) were seeded in 96-well plates. After 24 h, cells were treated with Mito-ID® O2 Sensor Probe Solution containing the tested compounds at the appropriate concentration. Fluorescence was estimated using a plate reader (Fluoroskan Ascent FL, Labsystem, Finland) at 350 nm (excitation) and 610 nm (emission).
(§2) Based on the above findings, we investigated the effects determined by derivatives 3a and 3b on 2008 and PSN-1 cancer cell aerobic glycolysis and mitochondria function.
(§3) However, these effects were magnified in PSN-1 cells, having reduction of cellular glycolytic activity of about 36 and 20% for 3a and 3b, respectively. […] This latter result could be explained tacking into consideration that the reference compound [Pt(DACH)(56Phen)] itself, that is also released upon reduction of 3a and 3b, is effective in hampering cellular glycolysis in both tested cancer cell lines. The difference between 3a and 3b might be attributed to the added effect of DCA.

[1] = Reduction in buffer in the presence of ascorbic acid; assay type: physicochemical; settings: 1 Eq ascorbic acid, phosphate buffer, RT, 2 hours
Method: A solution 2.0 mM of 3a (Scheme 4) in buffer was treated with 1 Eq ascorbic acid. NMR measurements were performed over a 2 hour time frame.
In order to assay which of the two Pt metal centers of 3a is more prone to be reduced, we added 1 Eq of ascorbic acid to a solution of 3a in phosphate buffer. […] Finally, we carried out the reaction at RT and not at 37° C. to avoid a fast reduction process that would have made more complicated its study.
The reaction was monitored by ^1H NMR spectroscopy (FIG. 9). Already after 2 min, time needed to prepare the sample and start the NMR experiment, besides the signals belonging to 3a, previously discussed, it was possible to note the signal belonging to [Pt(DACH)(56Phen)]^2+, free phenyl butyric acid and a signal at 6.34 ppm, consistent with a DCA moiety coordinated to a Pt(IV) metal center. These signals indicated the reduction of the phenanthroline-bonded Pt unit of 3a to [Pt(DACH)(56Phen)]^2+, and the release of the axial ligands, […] and c,c,t-[Pt(NH3)2(DCA)(OOCCH2CH2CH2NHCOCH2CH2COOH)] (5). We were not able to isolate the latter species. […] The reaction was monitored for about 2 hours. In FIG. 9 are reported the spectra recorded after 9, 21 and 59 min. In the second hour, no changes were detected.

[2] = Stability in phosphate buffer (NMR); assay type: physicochemical; settings: phosphate buffer pH 7, 37° C.
Method: A solution 2.0 mM of 3a (Scheme 4) in sodium phosphate buffer (50 mM, pH=7) was kept at 37° C. for 3 days. NMR and HPLC measurements were performed every day.
A 2.0 mM solution of 3a in phosphate buffer at pH=7 was kept at 37° C. in order to assay its stability by mean of NMR spectroscopy (FIG. 7). […] The signal at 7.40 ppm was assigned to the amidic proton. The signals at 7.18 and 6.48 belong to the aromatic ring of the coordinated phenylbutyrate. The large difference in chemical shifts between the 2 ortho protons of the phenyl ring and the 3 meta and para protons, coupled with the unusually low chemical shifts for the aromatic ortho protons, indicates a strong intramolecular interaction with the phenanthroline. Finally, the peak at 6.37 belongs to the coordinated DCA.

PSN-1 cells = assay: Glycolysis (Mito-ID O2 sensor), PSN-1; assay type: cell-based, human; settings: IC50 concentrations, 24 h
Method: as §1, §2, §3

[3] = tested on: six human cancer cell lines; assay: MTT cytotoxicity, over six human cancer cell lines; assay type: cell-based; settings: on average over tested cell lines
Method: MTT assay. […] Triplicate cultures were established for each treatment.
The two dimers, 3a and 3b, as well as compounds 1a and 2a were screened against six human cancer cell lines representative of lung (H157), colon (HCT-15), cervical (A431), ovarian (2008) and pancreatic (PSN1) cancers, along with melanoma (A375). Cytotoxicity was evaluated by means of the MTT test after 72 h of treatment and the in vitro antitumor potential of newly synthesized derivatives was compared to that of the reference metallo-drugs CDDP and OXP.

PC3 cells = assay: MTT cytotoxicity assay, PC3; assay type: cell-based, human; settings: PC3, 72 h exposure, read-out: IC50 (median growth inhibitory concentration)
Method: Cisplatin (CDDP) and oxaliplatin (OXP) were dissolved just before the experiment in a 0.9% NaCl solution.
(§4) Human prostate adenocarcinoma (PC3) cells were obtained from European Collection of Cell Cultures (ECACC, Salisbury, UK). Human ovarian cancer cell lines A2780 and its cisplatin resistant variant, A2780cisR, were kindly provided by Prof.
Triplicate cultures were established for each treatment.

A2780cisR cells = assay: MTT cytotoxicity assay, A2780cisR (cisplatin resistant); assay type: cell-based, human; settings: A2780cisR, 72 h exposure, MTT; read-out: IC50 (median growth inhibitory concentration)
Method: Platinum(IV) complexes were dissolved in DMSO to stock solutions of 1 mg/mL just before the experiment, and a calculated amount of drug solution was added to the cell growth medium to a final solvent concentration of 0.5%, which had no discernible effect on cell killing. Cisplatin (CDDP) and oxaliplatin (OXP) were dissolved just before the experiment in a 0.9% NaCl solution.
as §4
Cancer Res. 1988, 48, 589-601]. […] Triplicate cultures were established for each treatment.

Compound: c,c,t,t,c,c-[(DACH)(56Phen)(PhBu)Pt(μ-OOC—(CH2)2—CONH(CH2)3COO)—Pt(DCA)(NH3)2 (Cl2)](TFA)2 [Compound 3a]
- reduction of glycolysis processes compared with untreated control cells (2008 cells): about 25%
- reduction by ascorbic acid (in words) [1]: faster reduction of the phenanthroline-bonded Pt unit
- Pt(IV)-phen reduced ([2]; after 2 days): about 9%
- Pt(IV)-phen reduced ([2]; after 3 days): 10%
- Pt(IV)-cisPt NMR signal (1101 ppm) relative to Pt(IV)-phen signal (703 ppm) ([2]; after a day): 15%
- Pt(IV)-phen reduced ([2]; after one day): approximately 6.5%
- reduction of cellular glycolytic activity (PSN-1 cells): about 36%
- times more potent than compound 3b [3]: about 12 fold

Compound: [NH2][Pt]([NH2])([Cl])[Cl] [CDDP, Cisplatin, reference compound]
- IC50 (PC3 cells): 2.25 ± 0.82 µM
- IC50 (A2780cisR cells): 13.8 ± 0.2 µM
